Source: patent publication US9260439B2, “Dihydropyrrolopyrimidine derivatives” (PFIZER INC., priority 2014, dated 2016)
Counter-ions that a name gives are not always drawn.

target: truncated PI3Kα (p110α/iSH2 p85α) (Homo sapiens (Human), UniProt P42336); experiment: PI3KA_Act fluorescence polarization kinase assay (Ki); assay type: biochemical; settings: 1 mM ATP
Source text: 2) p110α-iSH2 p85α Complex (Full Length p110α and p85α iSH2)(“PI3KA_Act”)
Genes encoding for full length p110α and p85α nSH-iSH2=niSH2 (p85a aminoacids 322-600) subunits of PI3Kα complex were subcloned from existing constructs into pFASTBAC Dual vector (Life Technologies, Carlsbad, Calif.) using standard cloning procedures. Gene encoding p110α subunit was subcloned into polyhedrine promoter while gene encoding p85α niSH2 domains was subcloned into p10 promoter. Additionally, Human Rhinovirus 3C Protease (“HRV 3C”) site was introduced between nSH2 and iSH2, replacing aminoacids 431-438 of p85α with […] HRV 3C recognition sequence, using standard QuickChange mutagenesis protocol (Agilent Technologies, CA). Recombinant baculovirus was generated using Bac-to-Bac protocol (Life Technologies, Carlsbad, Calif.). Large scale expression was conducted in Sf21 (Life Technologies, Carlsbad, Calif.) cells at a multiplicity of infection (“MOI”)=1 for 48 hours. Cells were lyzed in 50 mM Tris pH 8.0, 250 mM NaCl, 5% glycerol, 0.25 mM TCEP, and 20 mM imidazole. The p110α-niSH2 p85α complex was purified from clarified supernatant using Immobilized Metalo Affinity Chromatography (“IMAC”). The protein was eluted from the column using 50 mM Tris pH 8.0, 200 mM NaCl, 0.25 mM TCEP, and 200 mM imidazole. Following elution p110α-niSH2 p85α complex was dialyzed against 4 liters of 50 mM Tris pH 8.0, 200 mM NaCl, 0.25 mM TCEP, and 40 mM imidazole in the presence of PreScission Protease (1:70 molar ratio of Protease to Protein) and TEV protease (1:40 molar ratio protease to protein) for 16 hours at 4° C. The protein was further purified using reverse IMAC to remove cleaved histidine tag and contaminants captured during initial IMAC purification. The mixture of p110α-iSH2 p85α complex and cleaved nSH2 was recovered in reverse IMAC 40 mM imidazole flow through and 60 mM imidazole wash fractions. Those fractions were pulled together and loaded on Superdex 200 26/60 SEC column equilibrated in 25 mM Tris, pH 8.0, 100 mM NaCl, 2% glycerol, and 2 mM TCEP. Following SEC, chromatography peak fractions containing p110α-iSH2 p85α complex were pulled and concentrated to 4.3 mg/mL. Purity and integrity of the complex was confirmed using LCMS, analytical SEC and SDS-PAGE (sodium dodecyl sulfate polyacrylamide gel electrophoresis) analysis.
The biochemical assays of kinase activity of full-length PI3Kα (full-length p110α/p85a) or truncated PI3Kα (p110α/iSH2 p85a) were conducted using a fluorescence polarization format similar to the procedure of Yuan J., et al., (2011) “PF-04691502, a Potent and Selective Oral Inhibitor of PI3K and mTOR Kinases with Antitumor Activity”, Mol Cancer Ther. 10, 2189-2199. The enzymatic reactions were conducted in 50 μL volumes in 96-well plates. The reactions contained human recombinant PI3Kα (2 nM full-length p110α/p85α or 0.5 nM p110α/iSH2 p85) and 30 μM phosphatidylinositol 4,5-bisphosphate (“PIP2”) (Cayman Chemical Company, Ann Arbor, Mich.) and were sonicated for 1 minute prior to adding PI3Kα enzyme (PI3KA_Act or PI3KA_FL), DMSO or test compound (12-point 3-fold serial dilution, 3 μM top dose, 2° A) DMSO final concentration), 5 mM MgCl2, 50 mM HEPES pH 7.4, 150 mM NaCl, 1 mM DTT ((2S,3S)-1,4-bis(sulfanyl)butane-2,3-diol), and 0.05% 3-[(3-cholamidopropyl)dimethylammonio]-1-propanesulfonate (“CHAPS”). […] The reactions were incubated for 30 min at room temperature, stopped with EDTA pH 8 (10 mM final concentration). In a detection plate, 15 μL of detector/probe mixture, containing 480 nM GST-Grp1 PH domain protein (University of Dundee, Dundee, UK) and 12 nM carboxytetramethylrhodamine (“TAMRA”)-tagged fluorescent phosphatidylinositol (3,4,5)-triphosphate (“PIP3”) (Echelon Biosciences, Inc., Salt Lake City, Utah) in assay buffer, was mixed with 15 μL of kinase reaction mixture. The plate was shaken for 30 minutes and fluorescence polarization values were measured on an LJL Analyst HT plate reader (Molecular Devices, Sunnyvale, Calif.). […]

truncated PI3Kα (p110α/iSH2 p85α), sequence (P42336 whole entry, the tested form may be a part): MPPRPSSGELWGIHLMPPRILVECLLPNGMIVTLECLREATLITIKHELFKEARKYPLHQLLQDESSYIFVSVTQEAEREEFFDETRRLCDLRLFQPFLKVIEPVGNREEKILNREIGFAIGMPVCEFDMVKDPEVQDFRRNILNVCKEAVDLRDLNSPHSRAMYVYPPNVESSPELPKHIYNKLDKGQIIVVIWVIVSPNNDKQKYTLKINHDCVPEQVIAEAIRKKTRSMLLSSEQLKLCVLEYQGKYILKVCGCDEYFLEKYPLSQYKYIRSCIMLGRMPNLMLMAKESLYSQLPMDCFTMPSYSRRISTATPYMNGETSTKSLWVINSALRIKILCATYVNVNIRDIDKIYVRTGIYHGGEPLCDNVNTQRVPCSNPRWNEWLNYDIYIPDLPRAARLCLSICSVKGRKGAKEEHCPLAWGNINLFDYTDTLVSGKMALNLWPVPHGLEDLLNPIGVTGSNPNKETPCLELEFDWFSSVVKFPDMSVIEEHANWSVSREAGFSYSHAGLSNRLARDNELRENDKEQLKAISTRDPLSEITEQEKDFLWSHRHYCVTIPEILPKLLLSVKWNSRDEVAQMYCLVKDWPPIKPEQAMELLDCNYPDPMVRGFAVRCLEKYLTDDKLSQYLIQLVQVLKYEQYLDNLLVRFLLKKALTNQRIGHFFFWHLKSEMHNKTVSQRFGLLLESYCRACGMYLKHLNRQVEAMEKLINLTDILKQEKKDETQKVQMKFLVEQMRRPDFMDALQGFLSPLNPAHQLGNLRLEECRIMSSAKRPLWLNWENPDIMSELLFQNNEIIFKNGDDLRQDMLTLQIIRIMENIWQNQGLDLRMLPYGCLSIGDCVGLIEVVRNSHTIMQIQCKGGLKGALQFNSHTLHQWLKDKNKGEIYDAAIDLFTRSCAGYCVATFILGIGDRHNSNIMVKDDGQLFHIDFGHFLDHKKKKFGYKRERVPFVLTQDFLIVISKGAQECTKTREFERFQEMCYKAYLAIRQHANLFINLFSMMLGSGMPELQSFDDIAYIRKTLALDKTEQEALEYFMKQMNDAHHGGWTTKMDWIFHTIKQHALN

Compound	PI3KA_Act Ki	Ki
C[C@H]1COCCN1c1nc(-c2cnc(N)nc2)c2c(n1)N([C@@]1(C)CCN(C(=O)C(C)(C)N)C1)CC2 [Example 5, 2-amino-1-[(3S)-3-{4-(2-aminopyrimidin-5-yl)-2-[(3S)-3-methylmorpholin-4-yl]-5,6-dihydro-7H-pyrrolo[2,3-d]pyrimidin-7-yl}-3-methylpyrrolidin-1-yl]-2-methylpropan-1-one]	0.024 nM	
C[C@]1(N2CCc3c(-c4cnc(N)nc4)nc(N4CCOCC4)nc32)CCN(C2CCNC2=O)C1 (stereo partly drawn) [Example 6, (3S)-3-[4-(2-aminopyrimidin-5-yl)-2-(morpholin-4-yl)-5,6-dihydro-7H-pyrrolo[2,3-d]pyrimidin-7-yl]-3-methyl-1,3′-bipyrrolidin-2′-one]		0.096 nM
CC1(C)CN=C(N2CC[C@](C)(N3CCc4c(-c5cnc(N)nc5)nc(N5CCOCC5)nc43)C2)O1 [Example 8, 5-{7-[(3S)-1-(5,5-dimethyl-4,5-dihydro-1,3-oxazol-2-yl)-3-methylpyrrolidin-3-yl]-2-(morpholin-4-yl)-6,7-dihydro-5H-pyrrolo[2,3-d]pyrimidin-4-yl}pyrimidin-2-amine]	0.019 nM	
CC1(C)COC(N2CC[C@](C)(N3CCc4c(-c5cnc(N)nc5)nc(N5CCOCC5)nc43)C2)=N1 [Example 9, 5-{7-[(3S)-1-(4,4-dimethyl-4,5-dihydro-1,3-oxazol-2-yl)-3-methylpyrrolidin-3-yl]-2-(morpholin-4-yl)-6,7-dihydro-5H-pyrrolo[2,3-d]pyrimidin-4-yl}pyrimidin-2-amine]	<0.018 nM	
[2H]C1([2H])OC([2H])([2H])C([2H])([2H])N(c2nc(-c3cnc(N)nc3)c3c(n2)N([C@@]2(C)CCN(C(=O)C(C)(C)N)C2)CC3)C1([2H])[2H] [Example 10, (S)-2-amino-1-(3-(4-(2-aminopyrimidin-5-yl)-2-morpholino-d8)-5,6-dihydro-7H-pyrrolo[2,3-d]pyrimidin-7-yl)-3-methylpyrrolidin-1-yl)-2-methylpropan-1-one hydrochloride]		< 0.018 nM
C[C@H]1COCCN1c1nc(-c2cnc(N)nc2)c2c(n1)N([C@H]1CCN(C(=O)NC(C)(C)C)C1)CC2 [Example 140]	0.318 nM	
C[C@H]1COCCN1c1nc(-c2cnc(N)nc2)c2c(n1)N(C1CN(C(=O)OC(C)(C)C)C1)CC2 [Example 141]	0.471 nM	
CNC(=O)COC(=O)N1CC(N2CCc3c(-c4cnc(N)nc4)nc(N4CCOCC4)nc32)C1 [Example 142]	0.159 nM	
CNC(=O)COC(=O)N1CC(N2CCc3c(-c4cnc(N)nc4)nc(N4CCOC[C@@H]4C)nc32)C1 [Example 143]	0.262 nM	
CNS(=O)(=O)N1CC[C@H](N2CCc3c(-c4cnc(N)nc4)nc(N4CCOC[C@H]4C)nc32)C1 [Example 144]	3.251 nM	
C[C@@H]1COCCN1c1nc(-c2cnc(N)nc2)c2c(n1)N([C@H]1CCN(S(C)(=O)=O)C1)CC2 [Example 145]	4.011 nM	
CNS(=O)(=O)N1CC(N2CCc3c(-c4cnc(N)nc4)nc(N4CCOCC4)nc32)C1 [Example 147]	0.064 nM	
CNS(=O)(=O)NCCOC(=O)N1CC(N2CCc3c(-c4cnc(N)nc4)nc(N4CCOCC4)nc32)C1 [Example 148]	0.094 nM	
C[C@]1(N2CCc3c(-c4cnc(N)nc4)nc(N4CCOCC4)nc32)CCN(S(C)(=O)=O)C1 [Example 149]	0.027 nM	
C[C@@]1(N2CCc3c(-c4cnc(N)nc4)nc(N4CCOCC4)nc32)CCN(S(C)(=O)=O)C1 [Example 150]	0.044 nM	
CN(C)C(=O)COC(=O)N1CC(N2CCc3c(-c4cnc(N)nc4)nc(N4CCOCC4)nc32)C1 [Example 151]	0.107 nM	
C[C@H]1COCCN1c1nc(-c2cnc(N)nc2)c2c(n1)N(C1CN(C(=O)OCC(=O)N(C)C)C1)CC2 [Example 152]	0.103 nM	
COCCCS(=O)(=O)N1CC(N2CCc3c(-c4cnc(N)nc4)nc(N4CCOC[C@@H]4C)nc32)C1 [Example 153]	0.105 nM	

Compound	PI3KA_Act Ki	Ki
C[C@H]1COCCN1c1nc(-c2cnc(N)nc2)c2c(n1)N(C1CN(S(=O)(=O)c3cn(C)cn3)C1)CC2 [Example 154]	0.286 nM	
COCCS(=O)(=O)N1CC(N2CCc3c(-c4cnc(N)nc4)nc(N4CCOC[C@@H]4C)nc32)C1 [Example 155]	0.116 nM	
C[C@H]1COCCN1c1nc(-c2cnc(N)nc2)c2c(n1)N([C@H]1CCN(C(=O)OC3COC3)C1)CC2 [Example 156]	0.088 nM	
C[C@H]1COCCN1c1nc(-c2cnc(N)nc2)c2c(n1)N(C(C)(C)C)CC2 [Example 157]	0.173 nM	
Nc1ncc(-c2nc(N3CCOCC3)nc3c2CCN3C23CC(C2)C3)cn1 [Example 158]	0.200 nM	
C[C@H]1COCCN1c1nc(-c2cnc(N)nc2)c2c(n1)N(C1CN(S(=O)(=O)CC3CC3)C1)CC2 [Example 159]	0.097 nM	
C[C@H]1COCCN1c1nc(-c2cnc(N)nc2)c2c(n1)N(C1CN(S(=O)(=O)c3cnn(C)c3)C1)CC2 [Example 160]	0.221 nM	
COCCCS(=O)(=O)N1CC(N2CCc3c(-c4cnc(N)nc4)nc(N4CCOCC4)nc32)C1 [Example 161]	0.202 nM	
C[C@H]1COCCN1c1nc(-c2cnc(N)nc2)c2c(n1)N(C1CN(S(=O)(=O)C(F)(F)F)C1)CC2 [Example 163]	0.188 nM	
C[C@H]1COCCN1c1nc(-c2cnc(N)nc2)c2c(n1)N(C1(C)CCN(S(C)(=O)=O)C1)CC2 (stereo partly drawn) [Example 164]	0.030 nM	
COC(=O)C(C)(C)N1CCc2c(-c3cnc(N)nc3)nc(N3CCOCC3)nc21 [Example 165]	0.449 nM	
C[C@H]1COCCN1c1nc(-c2cnc(N)nc2)c2c(n1)N(C1CN(P(C)(C)=O)C1)CC2 [Example 166]	0.280 nM	
C[C@H](O)COC(=O)N1CC(N2CCc3c(-c4cnc(N)nc4)nc(N4CCOCC4)nc32)C1 [Example 167]	0.230 nM	
C[C@H]1COCCN1c1nc(-c2cnc(N)nc2)c2c(n1)N([C@H]1CCN(P(C)(C)=O)C1)CC2 [Example 168]	0.297 nM	
Nc1ncc(-c2nc(N3CCOCC3)nc3c2CCN3C2CN(S(=O)(=O)CC3CC3)C2)cn1 [Example 169]	0.129 nM	
COCCS(=O)(=O)N1CC(N2CCc3c(-c4cnc(N)nc4)nc(N4CCOCC4)nc32)C1 [Example 170]	0.124 nM	
Nc1ncc(-c2nc(N3CCOC[C@@H]3CO)nc3c2CCN3C2CC(F)(F)C2)cn1 [Example 171]	2.745 nM	
CNS(=O)(=O)N1CC[C@@](C)(N2CCc3c(-c4cnc(N)nc4)nc(N4CCOCC4)nc32)C1 [Example 172]	0.029 nM	
